We go through five molecules from patent US12685777B2, “Compositions, systems, and methods for modulating a target gene” (The Board of Trustees of the Leland Stanford Junior …, priority 2022, dated 2026).

“Also recorded” adds a separate entry of the source. Read-outs that look alike come from different tables or passages of the source.

For experiment [1], the target named is T1, CDK9 and BCL6 (Homo sapiens, UniProt P41182+P50750).
T1 construct: endogenous in cells
The experiment is described as follows: Competition of TCIP-induced cell death with BCL6 inhibitor. Format: cell-based. The following applies: cell death recorded 72 hours after adding.

Experiment [2] concerns SUDHL5. The experiment is described as follows: Killing of lymphoma cell lines by CDK9-BCL6 TCIPs, death recorded 72 hours later. Format: cell-based, human. The procedure:
FIG. 15 CDK9-BCL6 TCIPs Effectively Kill Human Lymphomas. The molecules shown in FIG. 14 were used at the indicated concentrations to treat different lymphoma cell lines, such as SUDHL5 shown here. Death was recorded 72 hours later.

The subject of experiment [3] is MYC, FOXO3, p21, BCL6, BRD4 protein levels in KARPAS422 and SUDHL5. The experiment is described as follows: Western blots of target proteins in DLBCL cells. Format: cell-based, human. The following applies: titrated against constant 10 nM TCIP1, 8 hours. The procedure: Cells were plated at 1 M/mL and treated with drug at indicated timepoints and doses. 2 M Cells were harvested on ice in RIPA buffer (50 mM Tris-HCl pH 8, 150 mM NaCl, 1% NP-40, 0.1% DOC, 1% SDS, protease inhibitor cocktail (homemade), 1 mM DTT) and 1:200 benzonase (Sigma #E1014) was added and incubated for 20 minutes. After 10 minute centrifugation at 14,000 g and 4° C., the supernatant was collected and protein concentration was measured by Bradford.
Because a high percentage of the TCIP1-treated cells contain fragmented DNA by TUNEL assay at 24 hours (FIG. 31, Panel E), many of the “reduced genes” could reflect DNA fragmentation as part of the apoptotic process and digestion to mononucleosomes. Among the group of genes whose expression was most reduced were MYC and its targets (FIGS. 33B, 36C). The top 100 most TCIP1-reduced genes were examined using ChIP-seq data of human transcription factors in blood cancer cell lines, and found the promoters of TCIP1-inhibited genes highly enriched for MYC binding in multiple datasets (FIG. 33, Panel C). This is significant since many DLBCLs are considered to be MYC-dependent.
Signaling via NF-kB is known to be repressed by BCL6.
A general note: In western blotting, separated proteins are transferred to a membrane and probed.

Experiment [4] relates to DLBCL cell lines. The experiment is described as follows: Chemical rescue: competitive titration of JQ1 or Bl3812 against the TCIP. Type of experiment: cell-based. The following applies: titrated against constant JWZ-7-7 / TCIP1.
The test system of experiment [5] is NCI-H1105. The experiment is described as follows: Dose response on viability of small cell lung cancer line, resazurin assay. Type of experiment: cell-based. The following applies: NCI-H1105, 72 h treatment. The procedure:
(§1) IC50 of JWZ-7-7, BI-3812, JQ1, and combinations were calculated based on a dose response curve on three small cell lung cancer lines (FIG. 5). The dose response curve on viability was performed in technical replicates and biological triplicate after treating cells for 72 hours across a broad range of concentrations via serial dilutions. Viable cells were measured after treatment via a resazurin assay. The signal for viable assays was normalized to the DMSO treated negative control. A four-parameter non-linear fit was performed to fit a curve to calculate the IC50 for each of the cell lines. The table below describes the calculated IC50 across JWZ-7-7, JQ1, BI-3812 and combination of JQ1 and BI-3812 after 72 h treatment in technical replicates and biological triplicates.
(In general: Alamar Blue is a resazurin reagent that responds to reducing activity.)

Experiment [6] deals with DMS-79. The description is as above. Type of experiment: cell-based. The following applies: DMS-79, 72 h treatment. The procedure:
as §1

Experiment [7] has as its system NCI-H2196. The description is as above. The following applies: NCI-H2196, 72 h treatment. Type of experiment: cell-based. The procedure: as §1
The test system of experiment [8] is MYC, FOXO3, p21, BCL6, BRD4 protein levels in KARPAS422 and SUDHL5. The following applies: known for BET/BRD4 inhibitors; cited from earlier work.
Experiment [9] concerns the target T2, AR and BCL6 (Homo sapiens, UniProt P10275+P41182).
T2 construct: HaloTag; NanoLuc; expressed in transfected cells; host or cells: HEK293
The experiment is described as follows: AR-BCL6 nanoBRET assay in HEK293 cells. Format: cell-based. The following applies: labeled AR and BCL6. From the text: To ascertain activity of TCIP RCS-02-063 as schematically illustrated in FIG. 1, w a BRET assay was developed to detect in vivo target engagement and ternary complex formation. FIG. 25 (Panels A-B) provides an illustration of the assay as wells the results obtained therefrom. […] A BRET signal at 618 nm was then detected after excitation at 460 nm of HEK293 cells infected with the labeled fusion proteins.
A general note: BRET reads energy transfer from a luciferase to a nearby fluorophore.

Experiment [10] has as its system human prostatic cancer cell lines. The experiment is described as follows: Viable cell counts of androgen-dependent prostate cancer cell lines after 72 hours. Type of experiment: cell-based. The following applies: 72 hours of exposure, read-out: IC50 of killing of prostate cancer cell lines. On the procedure: The AR-BCL6 TCIPs synthesized in I above were tested for their ability to kill prostate cancer cell lines as an indication of their ability to treat human prostatic cancer. AR-TCIPs rapidly and robustly kill human prostatic cancer cell lines. Four different cell lines were used that are androgen-dependent. The drugs were added at the indicated concentrations and viable cell counts determined after 72 hours of exposure. […] The EC50 is shown in each case.

T2 sequence (P10275 whole entry, other chains not shown): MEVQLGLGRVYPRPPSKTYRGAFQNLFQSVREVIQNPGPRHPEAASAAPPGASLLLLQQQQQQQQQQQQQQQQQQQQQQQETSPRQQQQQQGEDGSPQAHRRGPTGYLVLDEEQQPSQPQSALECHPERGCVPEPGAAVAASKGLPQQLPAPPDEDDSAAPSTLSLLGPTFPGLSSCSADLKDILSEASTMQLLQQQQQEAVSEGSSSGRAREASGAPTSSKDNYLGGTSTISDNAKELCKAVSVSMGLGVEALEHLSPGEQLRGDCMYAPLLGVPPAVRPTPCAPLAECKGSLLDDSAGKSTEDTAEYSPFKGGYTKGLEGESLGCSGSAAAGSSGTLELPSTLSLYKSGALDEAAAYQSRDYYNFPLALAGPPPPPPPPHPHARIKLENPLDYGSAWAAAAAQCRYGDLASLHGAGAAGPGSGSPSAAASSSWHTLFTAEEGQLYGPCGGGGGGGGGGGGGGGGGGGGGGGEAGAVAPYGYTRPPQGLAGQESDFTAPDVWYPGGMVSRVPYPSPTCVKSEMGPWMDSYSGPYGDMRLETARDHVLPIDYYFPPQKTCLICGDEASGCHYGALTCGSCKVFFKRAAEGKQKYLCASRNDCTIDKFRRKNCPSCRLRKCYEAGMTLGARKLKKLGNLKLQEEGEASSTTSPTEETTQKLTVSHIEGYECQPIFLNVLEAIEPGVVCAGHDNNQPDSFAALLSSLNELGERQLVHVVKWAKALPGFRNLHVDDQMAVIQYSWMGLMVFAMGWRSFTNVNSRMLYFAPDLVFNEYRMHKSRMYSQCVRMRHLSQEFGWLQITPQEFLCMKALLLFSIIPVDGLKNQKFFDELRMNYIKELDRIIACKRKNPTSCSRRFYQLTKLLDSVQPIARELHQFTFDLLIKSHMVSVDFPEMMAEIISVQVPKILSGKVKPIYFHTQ

Take `CNC(=O)COc1cc2cc(Nc3nc(N4CCC(C(=O)NCCCCCCC(=O)N5CCC(C(=O)Nc6ncc(SCc7ncc(C(C)(C)C)o7)s6)CC5)CC4)ncc3Cl)cc(OC)c2n(C)c1=O` [BAK04-21]: the “Ternary complex in cells, competition with Bl3812” value in experiment [1] is reported as “forms a ternary complex in cells that can be competed with the BCL6 inhibitor”.

As to `CNC(=O)COc1cc2cc(Nc3nc(N4CCC(C(=O)NCCCCCCC(=O)N5CCC(C(=O)Nc6ncc(SCc7ncc(C(C)(C)C)o7)s6)CC5)CC4)ncc3Cl)cc(OC)c2n(C)c1=O` [BAK_04_21], the “Killing of lymphoma cells relative to component and competitor molecules” value in [2] is “more effective at killing lymphoma cells than component molecules and competitor molecules”.

As for `CNC(=O)COc1cc2cc(Nc3nc(N4CCC(C(=O)N(C)C)CC4)ncc3Cl)cc(OC)c2n(C)c1=O` [Bl3812], the “Reversal of TCIP1-induced protein changes” value in experiment [3] is “reversed p21 upregulation, FOXO3 upregulation, and MYC downregulation”. Moreover, the “Rescue of TCIP-induced cell death” value in experiment [4] is recorded as “rescue cell death; also recorded: prevented death by TCIP1”.

With `Cc1sc2c(c1C)C(c1ccc(Cl)cc1)=N[C@@H](CC(=O)OC(C)(C)C)c1nnc(C)n1-2` [JQ1], the IC50 result in experiment [5] was “Unstable”; in experiment [6], 10.1 µM; in experiment [7], 14.4 µM. Moreover, in [8], the “Drug level that reduces expression of MYC” value is 500 nM. Further, the “Rescue of TCIP-induced cell death” value in experiment [4] was “rescue cell death; also recorded: prevented death by TCIP1”.

For `CNC(=O)COc1cc2cc(Nc3nc(N4CCC(C(=O)NCCCNC(=O)CO/N=C5\CC[C@H]6[C@@H]7CC[C@H]8CC(=O)CC[C@]8(C)[C@H]7CC[C@]56C)CC4)ncc3Cl)cc(OC)c2n(C)c1=O` [RCS-02-063], the “BRET signal (target engagement)” value in [9] was “robust BRET signal”. Moreover, the IC50 in experiment [10] was around 1 µM; in experiment [10] (Homo sapiens, 72 h), around 1.5 µM.

What is called IC50 is the concentration needed to halve the response being measured.
